The values that follow are results of earlier work, collected in US20050065134A1, “2-aklylidene-19-nor-vitamin D derivatives for the treatment of anorexia or low bone mass in females exhibiting aggressive athletic behavior” (Pfizer Inc, priority 2003, published 2005).

This data set has as its system intestinal calcium transport. Conditions: 7 days, rats.

Read-outs that look alike come from different tables or passages of the source.

Regarding `C=C1[C@H](O)CC(=C/C=C2\CCC[C@]3(C)[C@@H]([C@H](C)CCCC(C)(C)O)CC[C@@H]23)C[C@H]1O` [2-Methylene-19-Nor-1,25-(OH)2D3, 1α,25-dihydroxy-2-methylene-19-nor-vitamin D3], the “change in intestinal calcium transport (in words)” value (130 and 260 pmol/day) is given as “no intestinal calcium transport activity”. Turning to `C=C1/C(=C\C=C2/CCC[C@]3(C)[C@@H]([C@H](C)CCCC(C)(C)O)CC[C@@H]23)C[C@@H](O)C[C@@H]1O` [1,25-(OH)2D3, 1,25-dihydroxyvitamin D3, reference compound], the “change in intestinal calcium transport (in words)” value (260 pmol/day, only dose tested) is “expected elevation of intestinal calcium transport”.

`C=C1[C@H](O)CC(=C/C=C2\CCC[C@]3(C)[C@@H]([C@@H](C)CCCC(C)(C)O)CC[C@@H]23)C[C@H]1O` [2-Methylene-19-Nor-20S-1,25-(OH)2D3, (20S)-1α,25-dihydroxy-2-methylene-19-nor-vitamin D3]: under “130 and 260 pmol/day”, the “change in intestinal calcium transport (in words)” value is “no significant change”.
